# Measurements reported in PMC7077750 (Journal of medicinal chemistry, 2020).
# Like-named read-outs stand apart in the source and are kept apart here.
# Tests used:
# C57BL/6 mice [1] = assay: Triad assessment: body temperature; conditions: 0.1, 1, 3, or 10 mg/kg (i.p.); 15 min; vs vehicle
# hCB1R [2] = molecular target: T1, hCB1R (Homo sapiens, UniProt P21554); assay: DiscoveRx HitHunter cAMP inhibition assay; conditions: for PAM bias between cAMP inhibition and βarrestin2 recruitment (ΔΔLogR): 100 nM CP55,940 as agonist; for PAM bias between cAMP inhibition and βarrestin2 recruitment (ΔΔLogR) / agonist bias between cAMP inhibition and βarrestin2 recruitment (ΔΔLogR): 90 min, operational model; for agonist bias between cAMP inhibition and βarrestin2 recruitment (ΔΔLogR): GAT compound alone
# T1 sequence (P21554 whole entry): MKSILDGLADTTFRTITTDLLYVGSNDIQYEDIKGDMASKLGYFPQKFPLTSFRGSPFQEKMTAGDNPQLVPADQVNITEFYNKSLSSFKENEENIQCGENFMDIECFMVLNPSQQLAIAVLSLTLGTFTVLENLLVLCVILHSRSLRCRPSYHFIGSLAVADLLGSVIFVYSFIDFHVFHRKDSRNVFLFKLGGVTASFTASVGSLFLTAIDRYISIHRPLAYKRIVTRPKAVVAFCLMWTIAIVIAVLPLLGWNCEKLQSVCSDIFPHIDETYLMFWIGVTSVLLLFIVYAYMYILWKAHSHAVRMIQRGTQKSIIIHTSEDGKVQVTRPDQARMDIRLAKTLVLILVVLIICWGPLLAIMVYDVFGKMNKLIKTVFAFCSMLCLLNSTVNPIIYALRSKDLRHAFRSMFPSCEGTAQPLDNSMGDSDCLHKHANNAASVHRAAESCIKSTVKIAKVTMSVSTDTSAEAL
# C57BL/6 mice [3] = assay: Triad assessment: catalepsy; conditions: 0.1, 1, 3, or 10 mg/kg (i.p.); 5 min; vs vehicle
# C57BL/6 mice [4] = assay: Triad assessment: warm water tail-flick test; conditions: 0.1-10 mg/kg i.p.; 20 min; significant vs vehicle at 3 and 10 mg/kg
# hCB1R [5] = molecular target: T1, hCB1R; assay: DiscoveRx PathHunter βarrestin2 recruitment assay; conditions: for concentrations promoting CP55,940-dependent βarrestin2 recruitment: 100 nM CP55,940, 90 min
# GFP-rCB1R = GFP-rCB1R (Rattus norvegicus, UniProt P20272); assay: cAMP inhibition; assay type: cell-based; conditions: for ΔEC50 / ΔEMax: difference between CP55,940 alone and maximal concentration of GAT compound
# GFP-rCB1R, sequence (P20272 whole entry): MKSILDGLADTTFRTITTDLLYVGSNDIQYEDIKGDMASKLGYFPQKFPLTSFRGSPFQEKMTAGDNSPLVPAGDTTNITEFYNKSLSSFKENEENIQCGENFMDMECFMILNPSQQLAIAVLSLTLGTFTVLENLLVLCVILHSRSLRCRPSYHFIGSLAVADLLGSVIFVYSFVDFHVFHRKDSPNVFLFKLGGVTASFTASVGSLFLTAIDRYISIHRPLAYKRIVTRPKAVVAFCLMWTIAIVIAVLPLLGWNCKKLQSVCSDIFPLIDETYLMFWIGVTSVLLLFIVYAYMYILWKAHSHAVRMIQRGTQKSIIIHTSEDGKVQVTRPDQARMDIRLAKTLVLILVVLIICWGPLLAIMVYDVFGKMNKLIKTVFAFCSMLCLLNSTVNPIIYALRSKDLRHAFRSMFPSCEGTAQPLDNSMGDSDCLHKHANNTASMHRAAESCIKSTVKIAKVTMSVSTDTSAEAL
# [6] = system: CFA-induced mechanical allodynia; assay: CFA-induced inflammatory nociception, mechanical allodynia; assay type: in vivo, mouse; conditions: for mechanical paw withdrawal threshold at 30 min post-injection: CFA-injected paw; for mechanical paw withdrawal threshold at 30 min post-injection / anti-allodynic efficacy at 4 h post injection: vs vehicle; for duration of efficacy post injection / suppression of CFA-induced mechanical allodynia in CB1KO mice: ipsilateral paw; for paw withdrawal thresholds in the contralateral paw: 0.1-30 mg/kg i.p.; for doses that elevated mechanical paw withdrawal thresholds relative to vehicle: CFA-injected (ipsilateral) paw, WT mice
# [7] = system: autaptic hippocampal neurons; assay: Electrophysiology in autaptic hippocampal neurons; conditions: after 9j treatment
# [8] = system: ocular hypertensive NEE mice; assay: Intraocular pressure in ocular hypertensive NEE mice; conditions: topical 0.2% 9j alone
# physchem = conditions: pH 7.4
# [9] = system: CFA-induced mechanical allodynia; conditions: same CFA model; cited from earlier work
# [10] = system: normotensive C57Bl/6J mice; conditions: cited from earlier work
# C57BL/6 mice [11] = conditions: orthosteric agonist at 10 mg/kg; cited from earlier work
# C57BL/6 mice [12] = conditions: orthosteric agonist at 10 mg/kg; cited from earlier work; remark: listed apart in the source
structure (smiles),measurement,setting,value
"O=[N+]([O-])CC(c1ccccc1F)c1c(-c2cccc(F)c2)[nH]c2cc(F)ccc12 (centres unmarked) [Compound 6r, 6-Fluoro-2-(3-fluorophenyl)-3-(1-(2-fluorophenyl)-2-nitroethyl)-1H-indole]",hypothermia,C57BL/6 mice [1],did not produce catalepsy or hypothermia
same,PAM bias between cAMP inhibition and βarrestin2 recruitment (ΔΔLogR),hCB1R [2],display bias toward cAMP inhibition
same,agonist bias between cAMP inhibition and βarrestin2 recruitment (ΔΔLogR),hCB1R [2],agonist bias toward cAMP inhibition
same,catalepsy,C57BL/6 mice [3],did not produce catalepsy
same,anti-nociceptive effect in the tail flick assay,C57BL/6 mice [4],dose-dependent anti-nociceptive effect
same,"concentrations promoting CP55,940-dependent βarrestin2 recruitment",hCB1R [5],≥ 190 nM
same,ΔEC50,GFP-rCB1R,-12 ± 5.7 nM
same,ΔEMax,GFP-rCB1R,68 ± 4.3 % Forskolin
same,mechanical paw withdrawal threshold at 30 min post-injection,[6]; 30 mg/kg i.p.,increased mechanical paw withdrawal threshold
same,duration of efficacy post injection,[6]; 30 mg/kg i.p.,at least 2.5 h
same,suppression of CFA-induced mechanical allodynia in CB1KO mice,[6]; 30 mg/kg i.p.,Neither
same,anti-allodynic efficacy at 4 h post injection,[6]; 30 mg/kg i.p.,no longer present
same,paw withdrawal thresholds in the contralateral paw,[6],without altering paw withdrawal thresholds in the contralateral paw
same,dose that maximally suppressed CFA-induced inflammatory pain,[6]; i.p.,30 mg/kg
same,doses that elevated mechanical paw withdrawal thresholds relative to vehicle,[6]; i.p.,3 to 30 mg/kg
"O=[N+]([O-])CC(c1ncccc1F)c1c(-c2ccccc2)[nH]c2ccccc12 (centres unmarked) [Compound 9j, 3-(1-(3-Fluoropyridin-2-yl)-2-nitroethyl)-2-phenyl-1H-indole]",DSE response,[7],DSE was enhanced
same,hypothermia,C57BL/6 mice [1],did not produce catalepsy or hypothermia
same,catalepsy,C57BL/6 mice [3],did not produce catalepsy
same,"change in IOP from baseline, 1 hour",[8]; 1 h,−2.5 ± 1 mmHg
same,"change in IOP from baseline, 6 hours",[8]; 6 h,−3.6 ± 1 mmHg
same,IOP decrease at 12 hours,[8]; 12 h,no longer present
"CCCCCCC(C)(C)c1ccc([C@@H]2C[C@H](O)CC[C@H]2CCCO)c(O)c1 [CP55,940, reference compound]","Standard agonist EMax, HitHunter cAMP",hCB1R [2]; standard agonist alone,1.5 ± 0.07 fold over baseline
same,"Standard agonist EMax, PathHunter βarrestin2",hCB1R [5]; standard agonist alone,8.0 ± 1.3 fold over baseline
same,"CP55,940 EMax, Vehicle (0)","GFP-rCB1R; CP55,940 without GAT compound, upper plateau",100 ± 6.4 % Forskolin
"O=[N+]([O-])CC(c1ccccc1)c1c(-c2cccnc2)[nH]c2ccccc12 (centres unmarked) [Compound 9d, 3-(2-Nitro-1-phenylethyl)-2-(pyridin-3-yl)-1H-indole]",solubility thermodynamic,physchem,1.7 µg/mL
"O=[N+]([O-])CC(c1ccccc1)c1c(-c2ccccc2)[nH]c2ccccc12 (centres unmarked) [Compound 6d, 3-(2-Nitro-1-phenylethyl)-2-phenyl-1H-indole]",anti-allodynic efficacy at 1.5 h,[9],present
same,anti-allodynic efficacy at […] post injection,[9],absent
same,time of maximal anti-allodynic efficacy post-injection,[9],30 min
same,Emax,"hCB1R [2]; read-out: cAMP EMax, PAM activity, CP55,940 at EC20 + analog, 30 min, mean ± SEM",110 ± 6.8%
"O=[N+]([O-])CC(c1ccccc1)c1c(-c2ccccc2)[nH]c2cccnc12 (centres unmarked) [Compound 9f, 3-(2-Nitro-1-phenylethyl)-2-phenyl-1H-pyrrolo[3,2-b]pyridine]",solubility thermodynamic,physchem,3.8 µg/mL
Cc1c(C(=O)c2cccc3ccccc23)c2cccc3c2n1[C@H](CN1CCOCC1)CO3 [WIN],effect on IOP,[10]; topical 1% WIN,decreases IOP
same,effect on IOP,[10]; topical WIN […] (subthreshold),does not affect IOP
"O=[N+]([O-])CC(c1ccccc1)c1c(-c2ccccc2)[nH]c2ncccc12 (centres unmarked) [Compound 9i, 3-(2-Nitro-1-phenylethyl)-2-phenyl-1H-pyrrolo[2,3-b]pyridine]",solubility thermodynamic,physchem,54.6 µg/mL
"O=[N+]([O-])CC(c1ccccc1F)c1c(-c2cccc(F)c2)[nH]c2c(F)cccc12 (centres unmarked) [Compound 6s, 7-Fluoro-2-(3-fluorophenyl)-3-(1-(2-fluorophenyl)-2-nitroethyl)-1H-indole]",hypothermia,C57BL/6 mice [1],did not produce catalepsy or hypothermia
same,PAM bias between cAMP inhibition and βarrestin2 recruitment (ΔΔLogR),hCB1R [2],display bias toward cAMP inhibition
same,agonist bias between cAMP inhibition and βarrestin2 recruitment (ΔΔLogR),hCB1R [2],agonist bias toward cAMP inhibition
same,catalepsy,C57BL/6 mice [3],did not produce catalepsy
same,anti-nociceptive effect in the tail flick assay,C57BL/6 mice [4],dose-dependent anti-nociceptive effect
same,"concentrations promoting CP55,940-dependent βarrestin2 recruitment",hCB1R [5],≥ 3500 nM
same,ΔEC50,GFP-rCB1R,-12 ± 8.0 nM
same,ΔEMax,GFP-rCB1R,67 ± 15 % Forskolin
same,antinociceptive efficacy compared with 6r at […] post injection,[6]; 30 mg/kg i.p.,greater antinociceptive efficacy than 6r
same,mechanical paw withdrawal threshold at 30 min post-injection,[6]; 30 mg/kg i.p.,increased mechanical paw withdrawal threshold
same,duration of efficacy post injection,[6]; 30 mg/kg i.p.,at least 2.5 h
same,suppression of CFA-induced mechanical allodynia in CB1KO mice,[6]; 30 mg/kg i.p.,Neither
same,anti-allodynic efficacy at 4 h post injection,[6]; 30 mg/kg i.p.,no longer present
same,paw withdrawal thresholds in the contralateral paw,[6],without altering paw withdrawal thresholds in the contralateral paw
same,doses that elevated mechanical paw withdrawal thresholds relative to vehicle,[6]; i.p.,3 to 30 mg/kg
"O=[N+]([O-])CC(c1cccnc1)c1c(-c2ccccc2)[nH]c2ccccc12 (centres unmarked) [Compound 9b, 3-(2-Nitro-1-(pyridin-3-yl)ethyl)-2-phenyl-1H-indole]",solubility thermodynamic,physchem,0.4 µg/mL
"O=[N+]([O-])CC(c1ccncc1)c1c(-c2ccccc2)[nH]c2ccccc12 (centres unmarked) [Compound 9c, 3-(2-Nitro-1-(pyridin-4-yl)ethyl)-2-phenyl-1H-indole]",solubility thermodynamic,physchem,12.6 µg/mL
"O=[N+]([O-])CC(c1ccccc1)c1c(-c2ccccc2)[nH]c2ccncc12 (centres unmarked) [Compound 9g, 3-(2-Nitro-1-phenylethyl)-2-phenyl-1H-pyrrolo[3,2-c]pyridine]",solubility thermodynamic,physchem,8.1 µg/mL
"O=[N+]([O-])CC(c1ccccn1)c1c(-c2ccccc2)[nH]c2ccccc12 (centres unmarked) [Compound 9a, 3-(2-Nitro-1-(pyridin-2-yl)ethyl)-2-phenyl-1H-indole]",solubility thermodynamic at 24 h,physchem,1 µg/mL
"O=[N+]([O-])CC(c1ccccc1)c1c(-c2ccncc2)[nH]c2ccccc12 (centres unmarked) [Compound 9e, 3-(2-Nitro-1-phenylethyl)-2-(pyridin-4-yl)-1H-indole]",solubility thermodynamic,physchem,0.7 µg/mL
"CCCCCc1cc(O)c2c(c1)OC(C)(C)[C@@H]1CCC(C)=C[C@@H]21 [THC, Δ[9]-tetrahydrocannabinol]",hypothermic effects,C57BL/6 mice [11],hypothermic effects
same,catalepsy,C57BL/6 mice [12],significant catalepsy
"O=[N+]([O-])CC(c1ccccc1)c1c(-c2ccccc2)[nH]c2cnccc12 (centres unmarked) [Compound 9h, 3-(2-Nitro-1-phenylethyl)-2-phenyl-1H-pyrrolo[2,3-c]pyridine]",solubility thermodynamic,physchem,2.3 µg/mL
